“Also recorded” adds a separate entry of the source.
Assays:
[1] = system: ZR-75-1, T-47D, A549 and A-427 lineages; experiment: MTT test, tumour cell lines overall; type: cell-based, human
Procedure: This test is based on the mitochondrial reduction by living metabolically active cells of the MTT (3-(4,5-dimethylthiazol-2-yl)-2,5-diphenyltetrazolium bromide) of yellowish colour into a blue coloured product, formazan. The quantity of formazan obtained is directly proportional to the number of living cells. After incubation of the cells for 24 hours in microplates with 96 flat bottomed wells, the culture medium is replaced by 100 μl of fresh culture medium containing the drug to be tested.
The microplates are then incubated for 3 hours at 37° C. and centrifuged for 10 minutes at 400 g (GPR centrifuge, Beckman). The MTT solution is replaced by 100 μl of dimethylsulphoxide (Merck). The microplates are agitated (Vari-Shaker, Dynatech) for 10 minutes.
In the microplates, the control cells like the treated cells were incubated in a medium without the compounds to be tested for 24 hours. The control cells are incubated in a medium without a drug throughout the whole experiment, while the treated cells are incubated in different media. These media contain the molecule to be tested at various concentrations: 10^-8 M, 10^-6 M and 10^-4 M. All the tests are carried out in 6 duplicates.

[2] = system: RAR-ERcassettes (RARα, RARβ, RARγ); experiment: Chimerical receptors RAR-ERcassettes, overall profile; type: cell-based
Procedure, shortened: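 Chimeric RAR-ERcassette receptors (AF-1/AF-2 retained, ER DNA-binding domain) drive ERE-controlled luciferase in HeLa cells, with β-galactosidase normalising transfection. Cells, transfected by calcium phosphate co-precipitation, received test effectors for 16 h starting 24 h after transfection.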

[3] = system: response element RARE of RARβ gene, endogenic retinoic receptors, HRLN lineage; experiment: HRLN transactivation (RARE-luciferase, stably transfected HeLa); type: cell-based
Procedure, shortened: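 Luciferase reporter read-out, in duplicate and shielded from light, in phenol red-free DMEM plus 3% dextran-charcoal-stripped FCS. The HeLa-derived line expresses endogenous retinoid receptors and stably harbours luciferase under the natural RARβ-gene RARE (RARE3-tk-Luc).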

[4] = system: ZR-75-1 human mammary cancer cells; experiment: MTT test, proliferation of ZR-75-1; type: cell-based
Procedure, shortened: (§1)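 Cells grown at 37° C in MEM/5% FCS were plated for 24 h, then treated at 10^-8, 10^-6 or 10^-4 M. Each condition was run in 6 duplicates.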

RAR and RXR receptors = experiment: RAR/RXR activity profile drawn from the models; type: cell-based
[5] = system: T-47D human mammary cancer cells; experiment: MTT test, proliferation of T-47D; type: cell-based
Procedure, shortened: as §1

SMILES: C/C(=C/c1ccc2c(c1)C(C)(C)CCC2(C)C)c1ccc(-c2nnn[nH]2)cc1 [CB92834]
- inhibition of the cellular lineages (in words) [1]: as active on the MTT test as the reference products tested; also recorded: more active on the oestrogen-sensitive lineages such as the mammary lineages ZR-75-1 and T-47D than on the pulmonary lineages
- RAR-ERcassette profile (in words) [2]: do not permit transactivation mediated by RARα-ERcassette and RARγ-cassette. However, a partial transactivation of RARβ-ERcassette is observed; also recorded: with a specific RAR agonist permits an over-activation of the effect of the RAR molecule alone for the three RAR-ERcassette receptors
- HRLN transactivation (in words) [3]: very feebly active
- Emax ([3]; Homo sapiens, HeLa, read-out: HRLN transactivation, E max): 21%
- activity at 100 µM ([4]; Homo sapiens, ZR-75-1, 10^-4 M, 72 h, control = 100%, read-out: level of proliferation): 18.7%
- activity at 1 µM ([4]; Homo sapiens, ZR-75-1, 10^-6 M, 72 h, control = 100%, read-out: level of proliferation): 39.9%
- activity at 0.01 µM ([4]; Homo sapiens, ZR-75-1, 10^-8 M, 72 h, control = 100%, read-out: level of proliferation): 27.9%
- effect on cellular increase, ZR-75-1 (in words) ([4]; MTT test): strongly inhibitive activity on the cellular increase of the two lineages
- RAR/RXR activity profile (in words) (RAR and RXR receptors): RXR specific activity
- activity at 100 µM ([5]; Homo sapiens, T47D, T-47D, 10^-4 M, 72 h, control = 100%, read-out: level of proliferation): 3.5%
- activity at 1 µM ([5]; Homo sapiens, T47D, T-47D, 10^-6 M, 72 h, control = 100%, read-out: level of proliferation): 83.2%
- activity at 0.01 µM ([5]; Homo sapiens, T47D, T-47D, 10^-8 M, 72 h, control = 100%, read-out: level of proliferation): 86.5%
- effect on cellular increase, T-47D (in words) ([5]; MTT test): strongly inhibitive activity on the cellular increase of the two lineages
